Consider 1 molecule from article PMC4067310, “From Pan-Reactive KV7 Channel Opener to Subtype Selective Opener/Inhibitor by Addition of a Methyl Group” (PLoS ONE, 2014).

One series addresses T1, KV7.2 (Homo sapiens, UniProt O43526).
T1 construct: expressed in transfected cells; host or cells: Xenopus laevis oocytes injected with cRNA (pGEM-HE vector)
Kind of series: Two-electrode voltage-clamp of KV7.2 expressed in Xenopus laevis oocytes. Format: cell-based. The method, then:
(§1) Point mutations were introduced using mutated oligonucleotide extension (PfuTurbo Polymerase, Stratagene, La Jolla, CA, USA) from a plasmid template harboring the cDNA of interest, digested with DpnI (Fermentas, St. Leon-Roth, Germany) and transformed into E.coli XL1 Blue cells. The construct was verified by complete DNA sequencing of the cDNA insert. cRNA was prepared from linearized human wild-type (WT) and mutant KV7 channels in the pGEM-HE vector using the T7 m-Message Machine kit (Ambion, Austin, TX, USA) according to the manufacturer's instructions.
(§2) Extraction of Xenopus laevis oocytes and injection of cRNA was performed as described previously. Oocytes were kept in Modified Barth's Saline (in mM: 88 NaCl, 1 KCl, 2.4 NaHCO3, 0.41 CaCl2, 0.82 MgSO4, 0.3 Ca(NO3)2, 15 HEPES, pH 7.4 supplemented with 100 U/mL penicillin and 100 µg/mL streptomycin) at 18°C, and currents were recorded after 2-7 days. The care of Xenopus laevis and the oocyte extraction procedure were performed according to national guidelines and approved by the Danish Animal Experiments Inspectorate.
(§3) KV7 currents in Xenopus laevis oocytes were recorded using two-electrode voltage-clamp at room temperature in Ringer buffer (in mM: 115 NaCl, 2.5 KCl, 1.8 CaCl2, 0.1 MgCl2, 10 HEPES, pH 7.4) as described previously. Data was acquired using pCLAMP 10.2 software (Molecular Devices, CA, USA) and analyzed using pCLAMP 10.2 and GraphPad Prism 4.0 (GraphPad Software Inc., CA, USA). Currents were elicited from a holding potential of −80 mV by 5 s steps to potentials between −100 and +50 mV in 10 mV increments, followed by a 2 s step to −120 mV.
(§4) SMB-1 was dissolved in dimethyl sulfoxide (DMSO) to obtain a concentrated stock solution. On the day of experiments the stock solution was thawed and diluted in Ringer buffer to the final concentrations. A concentration of 10 µM SMB-1 was used unless indicated otherwise. The final DMSO concentration never exceeded 0.1%.
(§5) Current – voltage (I–V) relationship curves were generated by normalizing the steady-state peak current measured at potentials between −100 and +50 mV to the current measured at +50 mV in control recordings and plotting the values against the test potential.
(§6) The voltage-dependence of activation was determined from tail current analysis using the current measured immediately after the transient capacitive current after stepping to −120 mV from potentials between −100 mV and +50 mV. Data was normalized to extend from 0–1 and the tail current-voltage relationship was fitted to the Boltzmann equation: [drawing 1] (Equation\;1) where I max is the maximum tail current, I min is the minimum tail current, V0.5 is the potential for half maximal activation and k is the slope factor. A V0.5 was calculated for each individual experiment and statistical significance was estimated by paired two-tailed Student's t-test.
Activation kinetics for KV7.2 and KV7.2-W236L was determined by fitting the traces recorded at potentials between −40 and +40 mV to a double exponential function: [drawing 2] (Equation\;2) where I(t) is the current at time t, Ifast and Islow are the current amplitudes at infinite times, and τfast and τslow are the time constants of the fast and slow components, respectively.
(§7) For investigation of deactivation kinetics the tail current traces recorded at −120 mV when stepping from the channels' respective ∼V0.5 were fitted to a single exponential function (Eq. 3).
(§8) Dose-response curves from electrophysiological experiments were made by plotting the increase in steady state current at +50 mV expressed in percentages as a function of drug concentration. The data were then analyzed by non-linear regression and fitted to the equation for sigmoidal dose-response with variable slope: [drawing 4] (Equation\;4) where R1 is the initial response, R2 is the maximum response, X is the logarithm of the drug concentration and nH is the slope (Hill coefficient) of the curve.
In general terms: Two-electrode voltage clamp is typically applied to oocytes expressing channels or transporters.

The next series deals with T2, KV7.4 (Homo sapiens, UniProt P56696).
T2 construct: expressed in transfected cells; host or cells: Xenopus laevis oocytes injected with cRNA (pGEM-HE vector)
T2 sequence (P56696 1-695): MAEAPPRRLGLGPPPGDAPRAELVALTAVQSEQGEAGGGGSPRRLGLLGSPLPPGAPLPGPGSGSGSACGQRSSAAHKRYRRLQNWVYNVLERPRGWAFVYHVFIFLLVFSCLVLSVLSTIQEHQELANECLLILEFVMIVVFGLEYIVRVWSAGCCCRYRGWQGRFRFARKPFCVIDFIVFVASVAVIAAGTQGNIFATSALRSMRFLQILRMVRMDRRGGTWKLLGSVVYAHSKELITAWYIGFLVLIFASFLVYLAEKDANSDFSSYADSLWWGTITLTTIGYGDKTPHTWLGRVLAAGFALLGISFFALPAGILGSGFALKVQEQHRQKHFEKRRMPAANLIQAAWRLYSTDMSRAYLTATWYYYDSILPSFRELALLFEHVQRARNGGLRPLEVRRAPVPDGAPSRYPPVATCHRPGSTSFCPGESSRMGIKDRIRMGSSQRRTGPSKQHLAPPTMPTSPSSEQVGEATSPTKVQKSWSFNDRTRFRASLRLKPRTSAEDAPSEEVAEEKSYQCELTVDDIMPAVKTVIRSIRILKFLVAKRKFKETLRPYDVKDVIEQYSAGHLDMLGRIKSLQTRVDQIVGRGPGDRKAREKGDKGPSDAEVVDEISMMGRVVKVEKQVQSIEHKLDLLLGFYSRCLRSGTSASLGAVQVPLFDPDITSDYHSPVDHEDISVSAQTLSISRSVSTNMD
As to the kind of experiment: Two-electrode voltage-clamp of KV7.4 expressed in Xenopus laevis oocytes. Format: cell-based. The method, then: as §1, §2, §3, §4, §5, §6
Activation kinetics for KV7.4 and KV7.4-W242L was determined by fitting the traces recorded at potentials between −30 and +50 mV to a single exponential function: [drawing 3] (Equation\;3) where I(t) is the current at time t, I 0 is the peak current and τ is the activation time constant.
as §7, §8

Series [1] in a line: Free fraction by equilibrium dialysis, rat plasma. Format: in vitro ADME. To be noted: equilibrium dialysis 37°C 5 h, mean ± S.E.M., n = 3. The method, then: (§9) The bidirectional permeability (Papp) of SMB-1 was examined in an MDCK cell system expressing human MDR1 [ABCB1, P-glycoprotein (P-gp)] as described previously. Permeation of the test compound from apical (A) to basal (B) direction or B to A direction was determined in triplicate over a 150-min incubation at 37°C. The efflux ratio was calculated as the ratio between Papp (B to A) and Papp (A to B). Free fraction of SMB-1 was determined using a standard equilibrium dialysis methodology with freshly isolated rat brain homogenate or plasma. Equilibrium dialysis was performed by incubating at 37°C for 5 h in triplicates.
(Equilibrium dialysis compares concentrations on both sides of a semipermeable membrane.)

Series [2] in a line: Free fraction by equilibrium dialysis, rat brain homogenate. To be noted: equilibrium dialysis 37°C 5 h, mean ± S.E.M., n = 3. Format: in vitro ADME. The method, then: as §9

“And” between values parts separate entries of the source, which are not always exact repeats. Equal entries are not always repeated.

In general, IC50 refers to the concentration at which inhibition is half-maximal. In general, EC50 refers to the concentration at which the effect is half-maximal. As a reminder, the fraction unbound is free concentration divided by total concentration. Lower therefore signals little free substance.

T1 sequence (O43526 whole entry): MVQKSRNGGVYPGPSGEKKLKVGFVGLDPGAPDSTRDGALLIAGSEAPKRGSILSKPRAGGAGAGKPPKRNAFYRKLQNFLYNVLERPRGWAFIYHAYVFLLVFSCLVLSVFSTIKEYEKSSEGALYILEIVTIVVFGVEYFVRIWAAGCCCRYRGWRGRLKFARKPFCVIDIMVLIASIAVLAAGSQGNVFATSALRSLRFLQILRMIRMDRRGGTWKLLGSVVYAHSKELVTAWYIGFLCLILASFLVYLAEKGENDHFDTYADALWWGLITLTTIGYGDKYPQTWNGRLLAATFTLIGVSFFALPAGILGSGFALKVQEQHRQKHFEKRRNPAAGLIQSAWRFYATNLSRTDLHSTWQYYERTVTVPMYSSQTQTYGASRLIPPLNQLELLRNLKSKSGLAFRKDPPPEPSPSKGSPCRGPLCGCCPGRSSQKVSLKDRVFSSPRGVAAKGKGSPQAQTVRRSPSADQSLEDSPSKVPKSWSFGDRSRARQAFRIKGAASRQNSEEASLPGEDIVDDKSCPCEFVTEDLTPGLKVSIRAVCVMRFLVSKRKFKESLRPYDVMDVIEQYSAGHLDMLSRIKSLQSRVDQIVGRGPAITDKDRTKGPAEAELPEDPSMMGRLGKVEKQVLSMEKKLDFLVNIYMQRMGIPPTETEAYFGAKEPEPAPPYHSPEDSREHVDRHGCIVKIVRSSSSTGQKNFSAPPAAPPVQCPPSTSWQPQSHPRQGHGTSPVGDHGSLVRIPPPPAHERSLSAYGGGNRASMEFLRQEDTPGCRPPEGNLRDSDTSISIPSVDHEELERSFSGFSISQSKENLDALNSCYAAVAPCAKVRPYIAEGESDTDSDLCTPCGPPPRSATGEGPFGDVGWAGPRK

As for `C[C@@H](c1ccc2c(c1)N(CC1CC1)CCO2)N(C)C(=O)/C=C/c1ccccc1F` [SMB-1, (E)-N-[(S)-1-(4-Cyclopropylmethyl-3,4-dihydro-2H-1,4-benzoxazin-6-yl)-ethyl]-3-(2-fluoro-phenyl)-N-methyl-acrylamide], at KV7.2 (10 µM), the “effect on τact_fast” value is recorded as “did not affect”. At KV7.2 (10 µM SMB-1, +50 mV, n = 9, read-out: current amplitude, % of control), the remaining activity at 10 µM turned out to be 81.7 ± 3.1%. At KV7.2 (10 µM, at −20 mV and above), the “effect on τact_slow” value was “increased”. The “τdeact, deactivation time constant in presence of compound” value on KV7.2 (10 µM, control 20.2±1.4 ms, n = 7, p<0.001) was found to be 37.3 ± 3.3 ms; on KV7.4 (10 µM, control 10.3±0.6 ms, n = 8, p<0.001) it was 16.4 ± 1.2 ms. Besides, the “V0.5, voltage-dependence of activation in presence of compound” value is -18.0±2.7 mV on KV7.2 (10 µM, control −22.5±2.2 mV, n = 8, p<0.05) and −1.4±3.4 mV at KV7.4 (10 µM, control −0.2±3.6 mV, n = 8, p = 0.59). Further, the IC50 at KV7.2 (current amplitude at +50 mV, 0.4, 2, 10 and 50 µM, n = 5) is ~7.4 µM and 7.4 µM. This molecule also displayed a current amplitude, % of control at 10 µM on KV7.4 (10 µM SMB-1, +50 mV, n = 8) of 184 ± 12.4%. The “effect on τact” value on KV7.4 (10 µM, at all potentials tested) was “significantly increased”. The Emax at KV7.4 (+50 mV, n = 5, read-out: maximal efficacy) turned out to be 213 ± 33.1%. The molecule further had an EC50 on KV7.4 (increase in steady state current at +50 mV, n = 5) of 5.7 µM. Moreover, the fraction unbound at 5 h in series [1] turned out to be 0.006 ± 0.004; in series [2], 0.001 ± 0.001.
